Results as given in patent US9187472B2 (AbbVie Inc., priority 2012, dated 2015).

Columns and labels:
[1] = molecular target: NAMPT (Homo sapiens, UniProt P43490); assay: TR-FRET Binding Assay of NAMPT with PRPP; conditions: with 200 μM PRPP and 2.5 mM ATP; 2 nM NAMPT, 2 nM probe, 16 hours equilibration
Summary of the method: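 Read-out is TR-FRET after a 16 h equilibration allowing possible compound modification by the enzyme. Final mix: 2 nM NAMPT, 2 nM probe, 1 nM Tb-anti-His antibody, 200 μM PRPP, 2.5 mM ATP, 2% DMSO.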

[2] = molecular target: NAMPT (human, recombinant, C-terminally His-tagged) (Homo sapiens, UniProt P43490); assay: Time-Resolved Fluorescence Resonance Energy Transfer (TR-FRET) Binding Assay of NAMPT; conditions: without substrates; 6.8 nM NAMPT, 200 nM probe, 3 hours equilibration
Summary of the method: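 Competitive binding against an Oregon Green 488 tracer (200 nM), 6.8 nM His-tagged enzyme, 1 nM Tb antibody, 2% DMSO, 3 h at RT. IC50 derived from TR-FRET ratios.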

[3] = system: PC3 cells; assay: NAMPT Cell Proliferation Assay; type: cell-based; conditions: Homo sapiens, PC-3, 120 h, 5 days incubation, cell viability by Cell Titer Glo
Summary of the method: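 Seed PC3 at 500 cells/well (RPMI, 10% HI-FBS), attach overnight; add compound, 10-fold series 10 μM → 1×10^−5 μM; incubate 5 d, 37° C/5% CO2; luminescent viability readout; fit % inhibition sigmoidally for IC50.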

NAMPT, sequence (P43490 whole entry): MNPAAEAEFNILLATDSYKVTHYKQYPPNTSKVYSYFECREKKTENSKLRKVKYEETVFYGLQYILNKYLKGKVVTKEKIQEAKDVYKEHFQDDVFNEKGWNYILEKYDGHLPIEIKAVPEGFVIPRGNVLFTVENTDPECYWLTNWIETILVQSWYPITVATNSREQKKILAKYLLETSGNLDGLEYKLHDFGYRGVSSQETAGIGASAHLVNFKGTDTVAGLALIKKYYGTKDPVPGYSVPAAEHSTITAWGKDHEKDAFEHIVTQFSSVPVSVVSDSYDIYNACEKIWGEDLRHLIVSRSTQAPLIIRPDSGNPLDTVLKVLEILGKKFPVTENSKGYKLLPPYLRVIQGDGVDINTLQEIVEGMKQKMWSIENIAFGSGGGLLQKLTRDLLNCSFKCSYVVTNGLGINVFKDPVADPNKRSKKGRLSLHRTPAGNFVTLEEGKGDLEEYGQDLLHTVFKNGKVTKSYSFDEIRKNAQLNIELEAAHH
NAMPT (human, recombinant, C-terminally His-tagged), sequence (P43490 whole entry): as above

Compound | IC50 [1] [nM] | IC50 [2] [nM] | IC50 [3] [nM]
CCCn1cc(-c2ccc(NC(=O)NCc3ccc4nccn4c3)cc2)cn1 [Example 360, 1-(imidazo[1,2-a]pyridin-6-ylmethyl)-3-[4-(1-propyl-1H-pyrazol-4-yl)phenyl]urea] | 0.717 | 291 | 663
CC(C)(C)OC(=O)N1CC(c2ccc(NC(=O)NCc3ccn4ccnc4c3)cc2)C1 [Example 364, tert-butyl 3-(4-{[(imidazo[1,2-a]pyridin-7-ylmethyl)carbamoyl]amino}phenyl)azetidine-1-carboxylate] | 0.172 | 135 | 31
CC(C)(C)OC(=O)N1CCC(Oc2ccc(C(=O)NCc3ccn4ccnc4c3)cc2)CC1 [Example 365, tert-butyl 4-{4-[(imidazo[1,2-a]pyridin-7-ylmethyl)carbamoyl]phenoxy}piperidine-1-carboxylate] | 0.171 | 1340 | 332
CC[C@H](C)C(=O)N1CCC(c2ccc(C(=O)NCc3ccn4ccnc4c3)cc2)C1 (stereo partly drawn) [Example 368, N-(imidazo[1,2-a]pyridin-7-ylmethyl)-4-{1-[(2S)-2-methylbutanoyl]pyrrolidin-3-yl}benzamide] | 0.317 | 602 | 48.4
O=C(NCc1ccn2ccnc2c1)c1ccc(C2CCN(C(=O)CC3CC3)C2)cc1 (stereo not drawn) [Example 369, 4-[1-(cyclopropylacetyl)pyrrolidin-3-yl]-N-(imidazo[1,2-a]pyridin-7-ylmethyl)benzamide] | 0.337 | 429 | 738
CC(C)OCC(=O)N1CCC(c2ccc(C(=O)NCc3ccn4ccnc4c3)cc2)C1 (stereo not drawn) [Example 371, N-(imidazo[1,2-a]pyridin-7-ylmethyl)-4-{1-[(propan-2-yloxy)acetyl]pyrrolidin-3-yl}benzamide] | 0.298 | 1440 | 820
O=C(NCc1ccn2ccnc2c1)c1ccc(C2CCN(C(=O)[C@H]3CCCO3)C2)cc1 (stereo partly drawn) [Example 373, N-(imidazo[1,2-a]pyridin-7-ylmethyl)-4-{1-[(2R)-tetrahydrofuran-2-ylcarbonyl]pyrrolidin-3-yl}benzamide] | 0.36 | 3040 | 585
O=C(NCc1ccn2ccnc2c1)c1ccc(C2CCN(C(=O)[C@@H]3CCCO3)C2)cc1 (stereo partly drawn) [Example 374, N-(imidazo[1,2-a]pyridin-7-ylmethyl)-4-{1-[(2S)-tetrahydrofuran-2-ylcarbonyl]pyrrolidin-3-yl}benzamide] | 0.292 | 1670 | 792
O=C(NCc1ccn2ccnc2c1)c1ccc(C2CCN(C(=O)[C@H]3CCOC3)C2)cc1 (stereo partly drawn) [Example 375, N-(imidazo[1,2-a]pyridin-7-ylmethyl)-4-{1-[(3S)-tetrahydrofuran-3-ylcarbonyl]pyrrolidin-3-yl}benzamide] | 0.241 | 986 | > 10000
O=C(NCc1ccn2ccnc2c1)c1ccc(C2CCN(C(=O)C3COCCO3)C2)cc1 (stereo not drawn) [Example 377, 4-[1-(1,4-dioxan-2-ylcarbonyl)pyrrolidin-3-yl]-N-(imidazo[1,2-a]pyridin-7-ylmethyl)benzamide] | 0.275 | 1670 | > 10000
O=C(NCc1ccn2ccnc2c1)c1ccc(C2CCN(C(=O)CC3CCOCC3)C2)cc1 (stereo not drawn) [Example 378, N-(imidazo[1,2-a]pyridin-7-ylmethyl)-4-[1-(tetrahydro-2H-pyran-4-ylacetyl)pyrrolidin-3-yl]benzamide] | 0.169 | 897 | > 10000
CC(C)C(=O)N1CCC(c2ccc(NC(=O)NCc3ccn4ccnc4c3)cc2)C1 (stereo not drawn) [Example 380, 1-(imidazo[1,2-a]pyridin-7-ylmethyl)-3-{4-[1-(2-methylpropanoyl)pyrrolidin-3-yl]phenyl}urea] | 0.251 | 179 | 40
O=C(NCc1ccn2ccnc2c1)Nc1ccc(C2CCN(C(=O)CC3CC3)C2)cc1 (stereo not drawn) [Example 382] | 0.204 | 119 | 83.8
CC(C)(O)C(=O)N1CCC(c2ccc(NC(=O)NCc3ccn4ccnc4c3)cc2)C1 (stereo not drawn) [Example 385, 1-{4-[1-(2-hydroxy-2-methylpropanoyl)pyrrolidin-3-yl]phenyl}-3-(imidazo[1,2-a]pyridin-7-ylmethyl)urea] | 0.539 | 491 | 110
O=C(NCc1ccn2ccnc2c1)Nc1ccc(C2CCN(C(=O)[C@@H]3CCCO3)C2)cc1 (stereo partly drawn) [Example 387, 1-(imidazo[1,2-a]pyridin-7-ylmethyl)-3-(4-{1-[(2S)-tetrahydrofuran-2-ylcarbonyl]pyrrolidin-3-yl}phenyl)urea] | 0.467 | 419 | 58.1
O=C(NCc1ccn2ccnc2c1)Nc1ccc(C2CCN(C(=O)C3CCOCC3)C2)cc1 (stereo not drawn) [Example 389, 1-(imidazo[1,2-a]pyridin-7-ylmethyl)-3-{4-[1-(tetrahydro-2H-pyran-4-ylcarbonyl)pyrrolidin-3-yl]phenyl}urea] | 0.617 | 584 | 78.3

Continued, values first:

IC50 [1] [nM] | IC50 [2] [nM] | IC50 [3] [nM] | Compound
1.94 | 5030 | > 10000 | O=C(NCc1ccn2ccnc2c1)c1cnc(-c2ccccc2)s1 [Example 361, N-(imidazo[1,2-a]pyridin-7-ylmethyl)-2-phenyl-1,3-thiazole-5-carboxamide]
0.256 | 143 | 106 | CC(C)Cn1cc(-c2ccc(NC(=O)NCc3ccc4nccn4c3)cc2)cn1 [Example 362, 1-(imidazo[1,2-a]pyridin-6-ylmethyl)-3-{4-[1-(2-methylpropyl)-1H-pyrazol-4-yl]phenyl}urea]
0.305 | 588 | 7660 | Cn1nccc1-c1ccc(C(=O)NCc2ccn3ccnc3c2)s1 [Example 363, N-(imidazo[1,2-a]pyridin-7-ylmethyl)-5-(1-methyl-1H-pyrazol-5-yl)thiophene-2-carboxamide]
0.435 | 146 | 21.5 | CC(C)(C)OC(=O)N1CCC(Oc2ccc(NC(=O)NCc3ccn4ccnc4c3)cc2)CC1 [Example 366, tert-butyl 4-(4-{[(imidazo[1,2-a]pyridin-7-ylmethyl)carbamoyl]amino}phenoxy)piperidine-1-carboxylate]
0.18 | 650 | 601 | CC(C)C(=O)N1CCC(c2ccc(C(=O)NCc3ccn4ccnc4c3)cc2)C1 (stereo not drawn) [Example 367, N-(imidazo[1,2-a]pyridin-7-ylmethyl)-4-[1-(2-methylpropanoyl)pyrrolidin-3-yl]benzamide]
0.175 | 47.6 | 9.93 | O=C(NCc1ccn2ccnc2c1)c1ccc(C2CCN(C(=O)c3ccccc3)C2)cc1 (stereo not drawn) [Example 370, 4-(1-benzoylpyrrolidin-3-yl)-N-(imidazo[1,2-a]pyridin-7-ylmethyl)benzamide]
0.46 | 2440 | 868 | CC(C)(O)C(=O)N1CCC(c2ccc(C(=O)NCc3ccn4ccnc4c3)cc2)C1 (stereo not drawn) [Example 372, 4-[1-(2-hydroxy-2-methylpropanoyl)pyrrolidin-3-yl]-N-(imidazo[1,2-a]pyridin-7-ylmethyl)benzamide]
0.305 | 1050 | > 10000 | O=C(NCc1ccn2ccnc2c1)c1ccc(C2CCN(C(=O)C3CCOCC3)C2)cc1 (stereo not drawn) [Example 376, N-(imidazo[1,2-a]pyridin-7-ylmethyl)-4-[1-(tetrahydro-2H-pyran-4-ylcarbonyl)pyrrolidin-3-yl]benzamide]
0.29 | 279 | 370 | CC(=O)N1CCC(c2ccc(NC(=O)NCc3ccn4ccnc4c3)cc2)C1 (stereo not drawn) [Example 379, 1-[4-(1-acetylpyrrolidin-3-yl)phenyl]-3-(imidazo[1,2-a]pyridin-7-ylmethyl)urea]
0.259 | 84.1 | 17.3 | CC[C@H](C)C(=O)N1CCC(c2ccc(NC(=O)NCc3ccn4ccnc4c3)cc2)C1 (stereo partly drawn) [Example 381]
0.225 | 49.5 | 13.3 | O=C(NCc1ccn2ccnc2c1)Nc1ccc(C2CCN(C(=O)c3ccccc3)C2)cc1 (stereo not drawn) [Example 383, 1-[4-(1-benzoylpyrrolidin-3-yl)phenyl]-3-(imidazo[1,2-a]pyridin-7-ylmethyl)urea]
0.375 | 406 | 51.7 | CC(C)OCC(=O)N1CCC(c2ccc(NC(=O)NCc3ccn4ccnc4c3)cc2)C1 (stereo not drawn) [Example 384, 1-(imidazo[1,2-a]pyridin-7-ylmethyl)-3-(4-{1-[(propan-2-yloxy)acetyl]pyrrolidin-3-yl}phenyl)urea]
0.254 | 283 | 42.4 | O=C(NCc1ccn2ccnc2c1)Nc1ccc(C2CCN(C(=O)[C@H]3CCCO3)C2)cc1 (stereo partly drawn) [Example 386, 1-(imidazo[1,2-a]pyridin-7-ylmethyl)-3-(4-{1-[(2R)-tetrahydrofuran-2-ylcarbonyl]pyrrolidin-3-yl}phenyl)urea]
0.506 | 388 | 122 | O=C(NCc1ccn2ccnc2c1)Nc1ccc(C2CCN(C(=O)[C@H]3CCOC3)C2)cc1 (stereo partly drawn) [Example 388, 1-(imidazo[1,2-a]pyridin-7-ylmethyl)-3-(4-{1-[(3S)-tetrahydrofuran-3-ylcarbonyl]pyrrolidin-3-yl}phenyl)urea]
